“Also recorded” adds a separate entry of the source. Where a name gives a salt, the structure may show the parent alone. Read-outs that look alike come from different tables or passages of the source.
How the values were obtained:
[1] = 7.3 mg in 100 μl of a saturated solution of mannitol, monitored over 5 minutes
[2] = cited from earlier work
in vivo [3] = conditions: for AUC(0-inf) / AUC(0-t) / Cmax / Tmax / half-life: both, NZW, rabbit, plasma
Experimental: Sublingual tablets or IM doses were administered using a Randomized Crossover study design over 5-consecutive weeks.
(§1) Animals were evaluated for viability once-daily throughout the study. Cageside clinical observations were performed twice-daily from the initiation of dosing until the end of treatment. Body weights were obtained upon receipt, on Study Day 1 and weekly thereafter.
Blood samples (approximately 1 mL/time point) were obtained from an indwelling arterial catheter placed approximately 30-minutes prior to initiation of sample collection. Samples were collected immediately prior to dosing (pre-dose baseline) and at approximately 5, 10, 15, 20, 30, 40, 60, 90, 120, and 180 minutes after dosing. At later time points, the samples were obtained by direct needle puncture or by removing the catheter and allowing blood to flow directly from the animal's ear artery into the blood collection tube.
Immediately after collection, the tube was inverted several times to disperse the anticoagulant and then placed on ice until centrifugation. The blood samples were centrifuged (˜2000×g for 10 minutes at 8° C.) within approximately 15-30 minutes of collection to separate the cellular and plasma fractions. The plasma fraction was harvested into screw-capped tubes and stored at approximately −70° C. (±10° C.) until analyzed. […] The remaining red blood cell fraction was discarded.
The method was validated based on the commercial method developed by ESA Biosciences, Inc. (Chelmsford, Mass.). All standards and reagents for the extraction and chromatography were purchased from ESA. Plasma samples, calibrators and quality control (QC) samples were extracted as follows: Each 0.50 mL aliquot of calibration curve standard, QC or unknown sample was mixed with 0.50 mL of working internal standard (I.S.) stock solution (dihydroxybenzylamine [DHBA], 10 ng/mL) in an ESA extraction tube containing alumina and buffer. The extraction tubes were capped and placed on a rocking shaker for 10 minutes. The tubes were placed on a vacuum manifold and the liquid was aspirated to waste. Each tube was then filled with wash solution which was aspirated to waste. Eluting solution (200 μL) was added to each tube. The tubes were capped and vortex-mixed for 10 minutes. The eluting solution was then forced from the tube under pressure into a microcentrifuge tube. The samples were centrifuged for 15 minutes, transferred to an autosampler vial and a 50 μl aliquot was injected into the HPLC.
A freshly prepared standard curve was analyzed along with samples on each day of analysis. […] Calibrator concentrations were 0.5, 1, 2, 4, 8, 12, 16 and 20 ng/mL as determined in the validation study. […] For the determination of unknown sample concentrations, two standard curve ranges were used; 0.5 to 20 ng/mL and 12 to […]. Values of unknown samples less than or equal to 20 ng/mL were reported from the lower range, and values greater than 20 ng/mL were reported from the higher range.
Elimination half-life (T½), maximum concentration (Cmax), time of maximum concentration (Tmax), area under the plasma concentration-time curve from time 0 through the final timepoint (AUC0-t), and area under the plasma concentration-time curve from time 0 extrapolated to infinity (AUC0-∞) were calculated for this study. The noncompartmental model for extravascular administration was used for all pharmacokinetic analyses. The calculation method was linear trapezoidal with linear/log interpolation. The elimination rate constant, lambda z (λz), was determined by WinNonlin using the best fit method.

[4] = rabbits; for Serum glucose level: relative to predose baseline; for Serum potassium levels: relative to predose levels
Experimental: as §1

[5] = rabbit, in vivo, im, 0.3 mg
Experimental: (§2) In a prospective, controlled, 5-way crossover study, five New Zealand white rabbits (mean weight 4.8±0.2 were investigated on five different days at least four weeks apart, using a protocol described previously (Gu et al., 1999). Each rabbit received EP 10 mg, EP 20 mg, and EP 40 mg as sublingual tablets, a placebo sublingual tablet (EP 0 mg) (as set forth in Table VI), and an EP 0.3 mg IM injection in the right thigh from EpiPen.
(§3) Using the same five New Zealand white rabbits (mean weight 4.8±0.2 Kg) as referred to supra, a prospective, controlled, 5-way crossover study was conducted, using a protocol described above (Gu et al., 1999), wherein each rabbit received an EP 40 mg sublingual tablet from each formulation set forth in Table XII and an EP 0.3 mg IM injection in the right thigh from EpiPen.
(§4) An indwelling catheter (OPTIVA 22G 1″, Johnson & Johnson) was inserted into an ear artery 30 min before dosing A 2 ml blood sample was obtained immediately before dosing and at 5, 10, 15, 20, 30, 40, 60, 90, 120, 150 and 180 minutes afterward.
(§5) Blood samples were refrigerated within 1 hour of sampling and centrifuged at 4° C. Plasma was frozen at −20° C. Before analysis, the plasma was thawed at room temperature and EP was extracted by a solid-liquid extraction process, with an efficiency of 70%-80%. […] The low range calibration curve was linear over the range of 0.1 to 1.0 ng/ml with a coefficient of variation of 0.8% at 0.1 ng and 1.4% at 1.0 ng. The high range calibration curve was linear over the range of 1.0 to 10.0 ng/ml with a coefficient of variation of 4.8% at 1.0 ng and 1.1% at 10.0 ng.
(§6) The AUC, Cmax, and Tmax values for each rabbit were compared using repeated measures ANOVA, Tukey-Kramer tests, and paired Students' t-test using NCSS Statistical Analysis Software (NCSS, Kaysville, Utah). Differences were considered to be significant at p<0.05.

in vivo [6] = conditions: New Zealand white, rabbit, im, 0.3 mg
Experimental: as §2, §3, §4, §5, §6

[7] = rabbits, 0.3 mg IM, mean ± SD, listed as epinephrine
[8] = rabbits, 15 mg sublingual tablet, N = 1
[9] = rabbits, 15 mg sublingual tablet, mean ± SD
[10] = rabbits, 30 mg sublingual tablet, mean ± SD
[11] = rabbits, 30 mg sublingual tablet, mean ± SD, listed as epinephrine
[12] = rabbits, 60 mg sublingual (2x30 mg tablets), mean ± SD

## CNC[C@H](O)c1ccc(O)c(O)c1 [EPBT, (−)-3,4-dihydroxy-α-[(methylamino)methyl]benzyl alcohol (+)-tartrate (1:1) salt]
[1]
  Dissolution of crystals: incomplete after 5 minutes; also recorded: slow and incomplete at the end of 5 minutes
[2]
  Water solubility: 1 gm in 3 ml water

## CNC[C@H](O)c1ccc(O)c(O)c1 [Epinephrine]
In vivo [3]; 15 mg
  AUC(0-inf): 0.196 µg·h/mL
  AUC(0-t): 0.0749 µg·h/mL
  Cmax: 0.119 ± 0.131 µg/mL
  Tmax: 59.2 min
  half-life: 181 ± 36.3 min
In vivo [3]; 30 mg
  AUC(0-inf): 0.0867 µg·h/mL
  AUC(0-t): 0.0823 µg·h/mL
  Cmax: 0.142 ± 0.192 µg/mL
  Tmax: 36.7 min
  half-life: 86.3 ± 60.5 min
In vivo [3]; 60 mg
  AUC(0-inf): 0.3 µg·h/mL
  AUC(0-t): 0.242 µg·h/mL
  Cmax: 0.235 ± 0.181 µg/mL
  Tmax: 44.2 min
  half-life: 141 ± 135 min
In vivo [3]; im, 0.3 mg
  AUC(0-inf): 0.0784 µg·h/mL
  AUC(0-t): 0.0543 µg·h/mL
  Cmax: 0.0547 ± 0.0283 µg/mL
  Tmax: 24 min
  half-life: 91.3 ± 44.3 min
In vivo [3]; rabbits, 0.3 mg IM, mean ± SD
  Cmax1: 0.0266 ± 0.0094 µg/mL
  Cmax2: 0.0427 ± 0.0181 µg/mL
  Tmax1: 9.0 ± 2.2 min
In vivo [3]; [7]
  Cmax2: 0.0427 ± 0.0181 µg/mL
  Tmax1: 9.0 ± 2.2 min
In vivo [3]; [8]
  Cmax4: 0.0551 µg/mL
  Tmax4: 180.0 min
In vivo [3]; [9]
  Cmax1: 0.0554 ± 0.0876 µg/mL
  Cmax2: 0.0304 ± 0.0257 µg/mL
  Cmax3: 0.0852 ± 0.1278 µg/mL
  Tmax1: 9.2 ± 2.0 min
  Tmax3: 111.7 ± 59.5 min
In vivo [3]; [10]
  Cmax1: 0.1475 ± 0.2157 µg/mL
  Cmax2: 0.0822 ± 0.1021 µg/mL
  Cmax3: 0.0455 ± 0.0443 µg/mL
  Tmax1: 8.3 ± 4.1 min
In vivo [3]; [11]
  Cmax2: 0.0822 ± 0.1021 µg/mL
  Tmax1: 8.4 ± 4.1 min
In vivo [3]; [12]
  Cmax1: 0.154 ± 0.1254 µg/mL
  Cmax2: 0.0854 ± 0.0353 µg/mL
  Cmax3: 0.1278 ± 0.0838 µg/mL
  Tmax1: 14.2 ± 8.6 min
In vivo [3]; rabbits, 60 mg sublingual (2x30 mg tablets), mean ± SD, listed as epinephrine
  Tmax1: 14.2 ± 8.6 min
[4]; 0.3 mg IM
  Serum glucose level: increase in serum glucose level
[4]; 30 mg sublingual
  Serum potassium levels: decreased
[4]; 60 mg sublingual
  Serum glucose level: increase in serum glucose level
  Serum potassium levels: decreased
[5]
  AUC: 2431 ± 386 ng/mL/min
In vivo [6]
  Cmax: 0.0503 ± 0.0171 µg/mL
  Tmax: 21 min

## OC[C@@H](O)[C@@H](O)[C@H](O)[C@H](O)CO [Mannitol]
[2]
  Water solubility: 1 gm in 5.5 ml water

— US20070202163A1 (priority 2005, published 2007)
